According to patent US20250076286A1, “GENERATION OF NEURAL ORGANIZER ORGANOIDS AND MIDLINE ASSEMBLOIDS FROM HUMAN PLURIPOTENT STEM CELLS” (The Board of Trustees of the Leland Stanford Junior …, priority 2022, published 2025):

Columns and labels:
Assay type in all cases: cell-based, human
[1] = test system: hiPSC cell-derived floor plate organoids (hFpO); test: Quantification of FOXA2 positive floor plate cells by immunofluorescence microscopy; settings: hFpO induced with 5 μM SAG day 1 to day 6 plus dual SMAD inhibitors, EGF, FGF2, RA; controls without SAG showed no induction
Procedure: For the generation of 3D floor plate organoids, hiPSC cells were incubated with Accutase® (Innovative Cell Technologies, AT104) at 37° C. for 7 min and dissociated into single cells. To obtain uniformly sized organoids, AggreWell-800 (STEMCELL Technologies, 34815) containing 300 microwells was used. Approximately 3×10^6 single cells were added per AggreWell-800 well in Essential 8 medium supplemented with the ROCK inhibitor Y27632 (10 mM, Selleckchem, S1049), centrifuged at 100 g for 3 min to capture the cells in the microwells, and incubated at 37° C. with 5% CO2. After 24 h, organoids consisting of approximately 10,000 cells were collected from each microwell by pipetting medium in the well up and down with a cut P1000 pipet tip and transferred into ultra-low attachment plastic dishes (Corning, 3262) in 20% knockout serum medium (KOSR) supplemented with two SMAD pathway inhibitors dorsomorphin (2.5 mM, Sigma-Aldrich, P5499) and SB-431542 (10 mM, R&D Systems, 1614) for the first 5 days.
For floor plate induction: SAG, FGF2, and retinoic acid was added to the medium starting on day 1 and CHIR was added to the media beginning on day 2 until day 7. The 20% KOSR medium was changed every day and supplemented with the respective small molecules and growth factors (FIG. 1). […]

[2] = test system: hFpO-hNtO midline assembloids; test: hFpO-induced ventralization of hNtO in midline assembloids (immunofluorescence staining)
Procedure: Cryoprotection and immunofluorescence staining. hFpO, hNtO and midline assembloids were fixed in 4% paraformaldehyde (PFA)/phosphate buffered saline (PBS) for 1-2 hours on a rocker at 4° C. They were then washed in PBS and transferred to 30% sucrose/PBS overnight until the organoids/assembloids sink in the solution. Subsequently, they were rinsed in optimal cutting temperature (OCT) compound (Tissue-Tek OCT Compound 4583, Sakura Finetek) and embedded. For immunofluorescence staining, 20 μm-thick sections were cut using a Leica Cryostat (Leica, CM1850). Cryosections were blocked in 0.3% Triton X-100 (Millipore Sigma, T9284-100ML), 1% BSA diluted in PBS for 1 h at room temperature. The sections were then incubated overnight at 4° C. with primary antibodies diluted in PBS containing 1% BSA, 0.1% Triton X-100. Samples were then rinsed 3× and incubated for 30 minutes in 1% BSA, 0.1% Triton X-100. Cryosections were then incubated with secondary antibodies in block 1 h. The following primary antibodies were used for staining: anti-FOXA2 (rabbit, Abcam), anti-NKX2.2 (mouse, DSHB, sc-517261), anti-NKX6.1 (mouse, DSHB), LMX1A (rabbit, HPA030088, Atlas antibodies), TFAP2A. Alexa Fluor dyes (Life Technologies) were used at 1:1000 dilution, and nuclei were visualized with Hoechst 33258 (Life Technologies, H3549). Cryosections were mounted for microscopy on glass slides using Aquamount (Polysciences, 18606), and imaged on a Zeiss M1 Axioscope or EVOS microscope. Images were processed in Fiji (NIH).
Generation of neural tube organoids or organoids (hNtO) and midline assembloids (hNtO-hFpO). To generate hNtO, organoids were generated using the Aggrewell method previously described. The 20% KOSR medium was changed every day and supplemented with dorsomorphin and SB-431542 for 5 Days. On day 6 in suspension, the organoids were transferred to 20% KOSR supplemented with EGF, FGF2, CHIR and retinoic acid. On day 7, hNtO were dissociated and seeded as previously described in ultra-low attachment 96 well plates. […]

[3] = test system: dorsal interneuron axon extension in dhSpOs; test: Axon extension response of dhSpO dorsal interneurons to purified FP-secreted proteins; settings: for sensitivity to repulsive axon guidance cue / chemorepulsion: ROBO3 KO neurites
Procedure: Differentiation of dorsal human spinal organoids (hSpO) and midline assembloids (dhSpO-hFpO-dhSpO) to study crossing of commissural projections. Aggregates of hiPSC cells were generated and collected as previously described in hFpO and hNtO protocols and transferred to poly-HEMA coated 10 cm dishes in Essential 6 medium (Thermo Fisher Scientific, A1516401) supplemented with two SMAD pathway inhibitors-dorsomorphin (2.5 mM, Sigma-Aldrich, P5499) and SB-431542 (10 mM, R&D Systems, 1614). For the first 5 d, Essential 6 medium was changed every day and supplemented with dorsomorphin and SB-431542. To generate hSpO, on day 6 in suspension the organoids were transferred to neural medium containing Neurobasal™-A Medium (Thermo Fisher Scientific, 10888022), B-27™ Supplement, minus vitamin A (Thermo Fisher Scientific, 12587010), GlutaMAX™ Supplement (1:100, Thermo Fisher Scientific, 35050079), Penicillin-Streptomycin (1:100, Thermo Fisher Scientific, 15070063), and supplemented with EGF, CHIR and RA. From day 19, to promote differentiation of the neural progenitors into neurons, the neural medium was supplemented with brain-derived neurotrophic factor (BDNF; 20 ng/ml, PeproTech, 450-02), IGF, AA, and 5′-cyclic monophosphate sodium salt (cAMP; 100 mM, Millipore Sigma, D0627). From this point on medium was changed every other day.
To validate the functionality of floor plate mechanisms that coordinate midline crossing, =isogenic KO hiPS cell lines targeting ROBO3 (an essential gene for midline crossing) with the CRISPR/Cas9 system were generated. Three sgRNAs targeting an early exon of a specific gene were designed and synthesized by Synthego to induce one deletion. Human iPSCs were dissociated with accutase and 0.5 million cells were mixed with 300 pmol sgRNAs and 40 pmol Cas9 protein (Synthego, SpCas9 2NLS Nuclease ([…])). Nucleofection was performed using the P3 Primary Cell 4D-NucleofectorTMX Kit L (Lonza, V4XP-3032), a 4D-nucleofector core unit and the X unit (Lonza) (program CA-137). […]

[4] = cyclopamine added the same day of fusion and in subsequent feeds, hFpO-hNtO assembloid

CNC1CCC(N(Cc2cccc(-c3ccncc3)c2)C(=O)c2sc3ccccc3c2Cl)CC1 (stereo not shown) [SAG]
percent of positive floor plate cells (FOXA2 marker) [1]: 90-99%

CC1=C2C[C@H]3[C@@H](CC=C4C[C@@H](O)CC[C@@]43C)[C@@H]2CC[C@]12O[C@@H]1C[C@H](C)CN[C@H]1[C@H]2C [cyclopamine]
FOXA2 expression in hFpO [2, 4]: abolished
NKX2.2 induction in hNtO [2, 4]: abolished
hFpO induced ventralization (NKX2.2, FOXA2, NKX6.1) ([2]; in the presence of cyclopamine, FIG. 5E-G): completely abolished

B1: SLIT-2: repulsive axon guidance cue, purified FP-secreted protein (protein, UniProt O94813 31-1529, looked up)
Slit homolog 2 protein: QCSCSGSTVDCHGLALRSVPRNIPRNTERLDLNGNNITRITKTDFAGLRHLRVLQLMENKISTIERGAFQDLKELERLRLNRNHLQLFPELLFLGTAKLYRLDLSENQIQAIPRKAFRGAVDIKNLQLDYNQISCIEDGAFRALRDLEVLTLNNNNITRLSVASFNHMPKLRTFRLHSNNLYCDCHLAWLSDWLRQRPRVGLYTQCMGPSHLRGHNVAEVQKREFVCSGHQSFMAPSCSVLHCPAACTCSNNIVDCRGKGLTEIPTNLPETITEIRLEQNTIKVIPPGAFSPYKKLRRIDLSNNQISELAPDAFQGLRSLNSLVLYGNKITELPKSLFEGLFSLQLLLLNANKINCLRVDAFQDLHNLNLLSLYDNKLQTIAKGTFSPLRAIQTMHLAQNPFICDCHLKWLADYLHTNPIETSGARCTSPRRLANKRIGQIKSKKFRCSAKEQYFIPGTEDYRSKLSGDCFADLACPEKCRCEGTTVDCSNQKLNKIPEHIPQYTAELRLNNNEFTVLEATGIFKKLPQLRKINFSNNKITDIEEGAFEGASGVNEILLTSNRLENVQHKMFKGLESLKTLMLRSNRITCVGNDSFIGLSSVRLLSLYDNQITTVAPGAFDTLHSLSTLNLLANPFNCNCYLAWLGEWLRKKRIVTGNPRCQKPYFLKEIPIQDVAIQDFTCDDGNDDNSCSPLSRCPTECTCLDTVVRCSNKGLKVLPKGIPRDVTELYLDGNQFTLVPKELSNYKHLTLIDLSNNRISTLSNQSFSNMTQLLTLILSYNRLRCIPPRTFDGLKSLRLLSLHGNDISVVPEGAFNDLSALSHLAIGANPLYCDCNMQWLSDWVKSEYKEPGIARCAGPGEMADKLLLTTPSKKFTCQGPVDVNILAKCNPCLSNPCKNDGTCNSDPVDFYRCTCPYGFKGQDCDVPIHACISNPCKHGGTCHLKEGEEDGFWCICADGFEGENCEVNVDDCEDNDCENNSTCVDGINNYTCLCPPEYTGELCEEKLDFCAQDLNPCQHDSKCILTPKGFKCDCTPGYVGEHCDIDFDDCQDNKCKNGAHCTDAVNGYTCICPEGYSGLFCEFSPPMVLPRTSPCDNFDCQNGAQCIVRINEPICQCLPGYQGEKCEKLVSVNFINKESYLQIPSAKVRPQTNITLQIATDEDSGILLYKGDKDHIAVELYRGRVRASYDTGSHPASAIYSVETINDGNFHIVELLALDQSLSLSVDGGNPKIITNLSKQSTLNFDSPLYVGGMPGKSNVASLRQAPGQNGTSFHGCIRNLYINSELQDFQKVPMQTGILPGCEPCHKKVCAHGTCQPSSQAGFTCECQEGWMGPLCDQRTNDPCLGNKCVHGTCLPINAFSYSCKCLEGHGGVLCDEEEDLFNPCQAIKCKHGKCRLSGLGQPYCECSSGYTGDSCDREISCRGERIRDYYQKQQGYAACQTTKKVSRLECRGGCAGGQCCGPLRSKRRKYSFECTDGSSFVDEVEKVVKCGCTRCVS
sensitivity to repulsive axon guidance cue / chemorepulsion [3]: increased sensitivity and chemorepulsion
sensitivity to repulsive axon guidance cue / chemorepulsion ([3]; listed as Slit-2): Increased sensitivity
sensitivity to repulsive axon guidance cue ([3]; wildtype dorsal interneurons): largely insensitive
